# Assay results from US9452177B2, “Vitamin D compounds and methods for reducing ocular hypertension (OHT)” (Wisconsin Alumni Research Foundation, priority 2008, dated 2016).
# Entries after “also recorded” stand apart in the source; their conditions may differ.
# What was measured:
# [1] = test system: eyes of cynomolgus monkeys; test: Aqueous humor formation rate by ocular scanning fluorophotometry; assay type: in vivo; conditions: for AHF Rx/Baseline, Vitamin D eye / AHF Rx/Baseline, Vitamin D/Vehicle / AHF ratio Vitamin D/Vehicle after treatment / Aqueous humor formation (AHF), Vitamin D eye after treatment: 5 μg
# Procedure: Ocular normotensive adult cynomolgus monkeys, of either sex, weighing 3-7 kg were anesthetized with i.m. ketamine HCl (3-25 mg/kg, supplemented with 1-10 mg/kg) for IOP, topical drop administration and aqueous humor flow measurements. All monkeys were free of any ocular abnormalities according to slit lamp biomicroscopy at the time measurements were taken. For outflow facility measurements, animals were given intravenous sodium pentobarbital (15 mg/kg, supplemented with 5-10 mg/kg) following i.m. ketamine induction.
# Aqueous humor formation rate was determined by ocular scanning fluorophotometry (Fluorotron Master, OcuMetrics Inc, Mountain View, Calif.) as previously described [Rasmussen, 2007]. Fluorescein drops were administered at least 30 minutes after the fourth treatment (see above) with vitamin D or vehicle. On day 3, prior to the fifth treatment, IOP and biomicroscopy were done. Following the fifth treatment scans were taken hourly, beginning 1 hour after treatment, until 6 duplicates scans were collected. Baseline scans were collected for 6 hours within 2 weeks before and at least 2 weeks after the treatment study. Post treatment aqueous humor formation rates were compared to the average of the pre and post baseline scans and to the vehicle treated eyes by the paired t-test for ratios different from 1.0. There were 8 monkeys for each treatment group.
# Aqueous humor formation was measured by fluorophotometry during the interval 1-6 hr after the 5th topical bid treatment with vitamin D or vehicle to opposite eyes (see Materials and Methods). Units for aqueous humor formation are μl/min. Data are Mean±Sem. Rx, treatment (Vitamin D or vehicle) n=6.
# [2] = test system: genes known to be involved in the regulation of IOP; test: Rat intestine and mouse calvarial cell microarrays (gene expression)
# Procedure: Vitamin D-deficient rats were given one bolus intravenous dose of 730 ng of 1,25-(OH)2D3/kg of body weight in ethanol or ethanol vehicle (control). Rats were anesthetized with isofluorane and decapitated 1, 3, 6, 10 and 24 h after injection of the dose or vehicle. There were three rats in each group for each time point. Blood was collected at the same time for determination of changes in serum calcium concentration. For each rat, the first 15 cm of intestine (duodenum) was removed, slit longitudinally and scraped with a glass slide. The mucosa was placed in a vial with GTC extraction buffer supplemented with 2% of β-mercaptoethanol (PolyATtract System 1000, Promega Corp., Madison, Wis.), homogenized at high speed with PowerGen 700 (Fisher Scientific, Pittsburgh, Pa.), flash frozen in liquid N2 and stored at −80° C. Experiments were done in duplicate.
# For each time point, Poly(A+) RNA was isolated from pooled homogenized mucosa of three 1,25-(OH)2D3 or three vehicle treated rats. The mRNA was isolated using the PolyATtract System 1000 (Promega Corp., Madison, Wis.). The mRNA was purified using an RNeasy kit (Qiagen, Chatsworth, Calif.). The quality, integrity and quantity of the Poly(A+) RNA were determined by agarose gel electrophoresis, UV absorption spectrophotometry and the use of Agilent Bioanalyser 2100 (Agilent Technologies, Palo Alto, Calif.).
# Primary fetal mouse calvarial cells were isolated and cultured in αMEM containing 10% FBS as described [Shevde, 2002]. Cells were plated in the 2×6-well plates (5×10^5 cells/well) and cultured with medium changes performed on days 1 and 4. On day 4 cells on 1 plate were treated with 1,25(OH)2D3 (10 nM final concentration). Second plate was used as the control. After 24 h of incubation with 1,25(OH)2D3, cells were harvested and total RNA was isolated with Trizol reagent (Invitrogen Life Technologies, Carlsbad, Calif.). The mRNA was further purified using an RNeasy kit (Qiagen, Chatsworth, Calif.). The quality, integrity and quantity of the total RNA were assessed by agarose gel electrophoresis and UV absorption spectrophotometry. Experiments were done in triplicates. […]
# The hybridization reaction and the automated hybridization procedure were performed by the Gene Expression Center at the Biotechnology Center at the University of Wisconsin-Madison as described (Kutuzova, 2004). Each probe was tested on an Affymetrix Test3 Array and the quality of the cDNA and cRNA was determined by a 3′/5′ ratio of housekeeping genes within the array (ubiquitin, rat glyceraldehyde 3-phosphate dehydrogenase, β-actin, and hexokinase). […] Expression data were analyzed using the Affymetrix Microarrray Suite software version 5.0 (MAS 5.0). […]
# [3] = Hours 1-3 after 5th topical bid treatment
# [4] = Hours 1-6 after 5th topical bid treatment
# [5] = Hours 4-6 after 5th topical bid treatment
# [6] = rat 730 ng/kg i.v., mouse calvarial cells 10 nM, 24 h
structure (smiles),measurement,setting,value
"C=C1/C(=C\C=C2/CCC[C@]3(C)[C@@H]([C@H](C)CCCC(C)(C)O)CC[C@@H]23)C[C@@H](O)C[C@@H]1O [1,25-(OH)2D3, 1α,25-dihydroxyvitamin D3]",change in aqueous humor formation rate,"[1]; 5 μg topical, compared to baseline or vehicle eye",no changes in the aqueous humor formation rates; also recorded: does not change the aqueous humor formation
same,"AHF Rx/Baseline, Vitamin D eye",[1]; [3],1.06 ± 0.10
same,"AHF Rx/Baseline, Vitamin D/Vehicle",[1]; [3],1.07 ± 0.06
same,AHF ratio Vitamin D/Vehicle after treatment,[1]; [3],0.94 ± 0.05
same,"Aqueous humor formation (AHF), Vitamin D eye after treatment",[1]; [3],1.27 ± 0.08 µL/min
same,"AHF Rx/Baseline, Vitamin D eye",[1]; [4],1.14 ± 0.06
same,"AHF Rx/Baseline, Vitamin D/Vehicle",[1]; [4],1.10 ± 0.07
same,AHF ratio Vitamin D/Vehicle after treatment,[1]; [4],1.01 ± 0.07
same,"Aqueous humor formation (AHF), Vitamin D eye after treatment",[1]; [4],1.53 ± 0.10 µL/min
same,"AHF Rx/Baseline, Vitamin D eye",[1]; [5],1.25 ± 0.09
same,"AHF Rx/Baseline, Vitamin D/Vehicle",[1]; [5],1.22 ± 0.16
same,AHF ratio Vitamin D/Vehicle after treatment,[1]; [5],0.98 ± 0.10
same,"Aqueous humor formation (AHF), Vitamin D eye after treatment",[1]; [5],1.54 ± 0.14 µL/min
same,"expression of vasoactive intestinal peptide, topoisomerase I, MMP2",[2]; data not shown,decreased expression
same,"expression of ACTG2, ATP1A1, AQP1, CEACAM, FN1, CD44 and TIMP3",[2]; [6],Significantly down-regulated
same,"expression of PTGER4, MMP3, MMP11 and MMP13",[2]; [6],Significant increases
same,"mRNA expression for carbonic anhydrase I (CAI), angiotensin I converting enzyme (ACE) and actin alpha (ACTA1)",[2]; [6],strong reductions
